Tested on: cell aggregates modelling cancer tumoroids
Assay: drug susceptibility testing of cell aggregates by EIS-based electrical signatures and optical microscopy
Protocol: In another set of experiments, the method of the present disclosure is shown to be useful in the continuous monitoring of the physiological and/or morphological changes of cell aggregates in drug susceptibility testing. Paclitaxel (PTX), a common anti-cancer drug for several types of cancers, was provided at different concentrations ranging from 0 nM (nanoMole) to 500 nM to cultures of cell aggregates modelling cancer tumoroids and observed over a period of 24 hours. […] Based on optical microscopy, it can be appreciated that there are hardly any distinguishable differences between the cell aggregate image at 100 nM of PTX and the cell aggregate images at 200 nM PTX or 500 nM PTX. […] Conventionally, it would have required testing the extracellular environment for metabolites to determine such a change. In contrast, by considering the two EIS-based electrical signatures of electrical size and opacity, more information on the effect of drug treatment can be determined. […] The two EIS-based electrical signatures together are able to indicate that the physiological state of the cells undergo substantive changes only after the drug concentration is raised to 500 nM. This is consistent with what is known of the drug treatment modelled in these experiments, and validates the usefulness of the EIS-based electrical signatures in monitoring physiological and/or morphological changes in 3D cell aggregates.

SMILES: CC(=O)O[C@H]1C(=O)[C@@]2(C)[C@H]([C@H](OC(=O)c3ccccc3)[C@]3(O)C[C@H](OC(=O)[C@H](O)[C@@H](NC(=O)c4ccccc4)c4ccccc4)C(C)=C1C3(C)C)[C@]1(OC(C)=O)CO[C@@H]1C[C@@H]2O [Paclitaxel]
- optical size of the cell aggregate (optical microscopy) (100 nM PTX, 24 hours, FIG. 17A): started to decrease
- electrical size of the cell aggregates (500 nM PTX, observed over 24 hours, FIG. 17B, 0 nM control 300±41.8 μm): 281±40.3 μm
- opacity of the cell aggregates (drug concentration increased from 0 nM to 500 nM, 24 hours, FIG. 17C): remains relatively unchanged

From patent US12613179B2, “Label-free electrical monitoring of cell aggregates” (NANYANG TECHNOLOGICAL UNIVERSITY, priority 2020, dated 2026)
